Data published in PMC5951806, “Rapid labelling and covalent inhibition of intracellular native proteins using ligand-directed N-acyl-N-alkyl sulfonamide” (Nature Communications, 2018).

Tests used:
Assay in all cases: TMT LC-MSMS of 11-labelled proteins
Format in all cases: cell-based
[1] = target: Actin, cytoplasmic 1 (ACTB) (Homo sapiens, UniProt P60709)
Excerpt: (§1) The labelled proteins were enriched by immunoprecipitation with an anti-fluorescein antibody and tryptically digested in gel. Digested peptides were modified with Light- (L-), Medium- (M-), or Heavy- (H-) TMT reagent for samples treated with 11, 11 with PU-H71 (as competitive condition), or DMSO (vehicle), respectively, and mixed in a 1:1:1 ratio for LC-MSMS analysis. We performed three experimental replicates, in which proteins detected and quantified at least twice were selected as identified proteins. According to the related approach of Cravatt et al[44], the proteins having L/H (11/DMSO) ratios >5 were defined as 11-labelled proteins. […] On the basis of these criteria, we identified 6 proteins that react with 11, including three ligand-specific targets (Hsp90α (HSP90AA1), Hsp90β (HSP90AB1), and Grp94 (HSP90B1)) and three off-targets (Trifunctional enzyme subunit α (HADHA), Tubulin-α (TUBA1B), and ADP/ATP translocase 3 (SLC25A6)) (Fig. 5d, e and Supplementary Data 1). […] Grp94, a HSP90 isomer, was previously reported to be a PU-H71 specific target. TRAP-1, another Hsp90 isomer that can bind PU-H71, on the other hand, was not identified as 11-target by our criteria.
(§2) SKBR3 human breast cancer cells (2.0 × 10^6 cells) were seeded on a 10 cm dish and cultured for 3 days in McCoy’s 5A in a 5% CO2 humidified chamber at 37 °C. […] As competitive experiments, the labelling was conducted in the presence of PU-H71 (10 µM). After labelling, the cells were washed twice with PBS, and lysed with RIPA buffer. […] The supernatant was mixed with chilled acetone and incubated overnight at −80 °C. The protein precipitates were solubilized by sonication in 1 mL of RIPA buffer containing 1% SDS, and then 10-fold diluted with RIPA buffer to reduce SDS concentration to c.a. 0.1%. The protein solution (containing 1 mg of protein) was mixed with Protein G Sepharose 4 Fast Flow (GE Healthcare) and rotated at 4 °C for 1 h. After removal of the beads, the remaining supernatant was mixed with anti-fluorescein antibody (Abcam, ab19491, 7:10000) and rotated at 4 °C for 1 h, followed by addition of fresh Protein G Sepharose 4 Fast Flow and further incubation at 4 °C for 4 h. The beads were washed five times with RIPA buffer and once with PBS. Proteins were eluted from the beads by addition of 2 × sample buffer containing 100 mM DTT and boiling at 95 °C for 5 min. The samples were subjected to a 7.5% SDS–PAGE gel (Mini-PROTEAN TGX Gels, BioRad), and electrophoresed as the migration distance of dye front is about 10 mm. Each lane was excised (height, 10 mm), and treated with a 47.5% methanol / 47.5% pure water / 5% acetic acid for 20 min, a 50% methanol / 50% pure water for 10 min, and in pure water for 10 min. The gel pieces were dehydrated with 100% acetonitrile, and then swelled with 200 μL of 100 mM TEAB (triethylamine bicarbonate) buffer containing 10 mM DTT and heated at 56 °C for 30 min. The solutions were replaced with 200 µL of 100 mM TEAB buffer containing 55 mM iodoacetamide and incubated for 45 min in the dark. The gel pieces were washed with 100 mM TEAB buffer and dehydrated in acetonitrile. This step was repeated once. The gels were reswelled in 100 mM TEAB buffer containing 10 ng/μL Sequencing Grade Trypsin (Promega) and incubated overnight at 37 °C. To the gels, 50 μL of an extraction solution (50% acetonitrile, 0.1% TFA) was added. After 10 min incubation, the supernatants were collected to new tubes, and this process was repeated twice. Extracted peptides were dried in vacuo and reconstituted with 25 μL of 100 mM TEAB buffer.

[2] = target: T1, Isoform 2 of Calcium-binding mitochondrial carrier protein Aralar2 (SLC25A13) (Homo sapiens, UniProt Q9UJS0)
T1 sequence (Q9UJS0 2-676 isoform Q9UJS0-2): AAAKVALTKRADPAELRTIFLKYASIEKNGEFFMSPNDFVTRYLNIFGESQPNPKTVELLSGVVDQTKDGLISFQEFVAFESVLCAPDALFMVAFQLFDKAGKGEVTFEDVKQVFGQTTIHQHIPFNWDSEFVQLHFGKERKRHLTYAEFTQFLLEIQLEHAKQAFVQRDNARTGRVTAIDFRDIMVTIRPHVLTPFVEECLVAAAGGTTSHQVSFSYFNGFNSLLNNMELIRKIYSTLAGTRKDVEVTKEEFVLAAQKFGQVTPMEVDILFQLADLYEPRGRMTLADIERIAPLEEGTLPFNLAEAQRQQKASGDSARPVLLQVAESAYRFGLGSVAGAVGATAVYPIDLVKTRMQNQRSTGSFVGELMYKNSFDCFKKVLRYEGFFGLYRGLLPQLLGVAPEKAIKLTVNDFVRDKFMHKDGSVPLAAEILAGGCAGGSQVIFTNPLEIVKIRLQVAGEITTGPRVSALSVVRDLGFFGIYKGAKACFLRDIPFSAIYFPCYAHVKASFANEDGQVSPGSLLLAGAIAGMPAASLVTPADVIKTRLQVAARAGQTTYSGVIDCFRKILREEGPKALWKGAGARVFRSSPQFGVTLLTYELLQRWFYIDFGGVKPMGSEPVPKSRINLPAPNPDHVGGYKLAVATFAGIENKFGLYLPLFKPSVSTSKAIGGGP
Excerpt: as §1, §2

[3] = target: ATP synthase subunit alpha, mitochondrial (ATP5A1) (Homo sapiens, UniProt P25705)
Excerpt: as §1, §2

[4] = sheet Exp1, SKBR3 cells, 11 0.5 µM 3 h vs DMSO
[5] = sheet Exp1, SKBR3 cells, 11 0.5 µM 3 h vs with PU-H71 10 µM
[6] = sheet Merged, SKBR3 cells, 11 0.5 µM 3 h vs DMSO
[7] = sheet Merged, SKBR3 cells, 11 0.5 µM 3 h vs with PU-H71 10 µM

## CC(=O)Oc1ccc2c(c1)Oc1cc(OC(C)=O)ccc1C21OC(=O)c2cc(C(=O)NCCOCCOCCNC(=O)CCCC(=O)N(CC#N)S(=O)(=O)c3ccc(C(=O)NCCCn4c(Sc5cc6c(cc5I)OCO6)nc5c(N)ncnc54)cc3)ccc21 [compound 11]
[1]; Exp3, ACTB
  Abundance Ratio: (11) / (11 with PU-H71): 0.843
  Abundance Ratio: (11) / (DMSO): 2.666
  Abundances (Grouped): 11: 445.7
  Abundances (Grouped): 11 with PU-H71: 528.9
[1]; [4]
  Abundance Ratio: (11) / (DMSO): 3.266
[1]; [5]
  Abundance Ratio: (11) / (11 with PU-H71): 0.822
[1]; sheet Exp2, ACTB
  Abundance Ratio: (11) / (11 with PU-H71): 0.825
  Abundance Ratio: (11) / (DMSO): 3.623
  Abundances (Grouped): 11: 493.5
  Abundances (Grouped): 11 with PU-H71: 598.3
[1]; [6]
  Abundance Ratio: (11) / (DMSO): 3.272
[1]; [7]
  Abundance Ratio: (11) / (11 with PU-H71): 0.843
[2]; sheet Exp2, SLC25A13
  Abundance Ratio: (11) / (11 with PU-H71): 0.894
  Abundance Ratio: (11) / (DMSO): 2.324
  Abundances (Grouped): 11: 24.4
[2]; sheet Exp2, SLC25A13, with PU-H71
  Abundances (Grouped): 11 with PU-H71: 27.3
[2]; [6]
  Abundance Ratio: (11) / (DMSO): 2.324
[2]; [7]
  Abundance Ratio: (11) / (11 with PU-H71): 0.894
[3]; Exp3, ATP5A1
  Abundance Ratio: (11) / (11 with PU-H71): 0.84
  Abundance Ratio: (11) / (DMSO): 3.573
  Abundances (Grouped): 11: 381.2
  Abundances (Grouped): 11 with PU-H71: 453.7
[3]; [4]
  Abundance Ratio: (11) / (DMSO): 3.323
[3]; [5]
  Abundance Ratio: (11) / (11 with PU-H71): 0.923
[3]; sheet Exp2, ATP5A1
  Abundance Ratio: (11) / (11 with PU-H71): 0.771
  Abundance Ratio: (11) / (DMSO): 3.865
  Abundances (Grouped): 11: 390.8
  Abundances (Grouped): 11 with PU-H71: 506.9
[3]; [6]
  Abundance Ratio: (11) / (DMSO): 3.663
[3]; [7]
  Abundance Ratio: (11) / (11 with PU-H71): 0.771
